From US4605515A, “Calcitonin-(1-23)-peptide amide” (Armour Pharmaceutical Company, priority 1984, dated 1986)
Bridge positions count the residues as written; N and C are the ends. Ends that are not written are not given here. Peptide text beside a SMILES is read from it.

Legend:
[1] = test system: serum calcium concentration
Method: Rats were divided into four groups of seven animals, and each group was assigned at random to a dose of standard or test solution. Low and high doses were chosen from the linear portion of the dose-response curve. For the salmon calcitonin standard, the values were 0.7 and 2.1 mcg. peptide/100 g. body weight (BW). This dose approximates 3 and 9 MU/100 g. BW. Peptides were given by subcutaneous injection (0.2 ml/100 g. BW) and blood was withdrawn 1 hour later for serum calcium determination. Sera are processed and analyzed within two hours of collection.

[2] = literature values; cited from earlier work

## CC(C)C[C@H](NC(=O)[C@H](CCCCN)NC(=O)CNC(=O)[C@H](CC(C)C)NC(=O)[C@@H](NC(=O)[C@@H]1CSSC[C@H](N)C(=O)N[C@@H](CO)C(=O)N[C@@H](CC(N)=O)C(=O)N[C@@H](CC(C)C)C(=O)N[C@@H](CO)C(=O)N[C@@H]([C@@H](C)O)C(=O)N1)C(C)C)C(=O)N[C@@H](CO)C(=O)N[C@@H](CCC(N)=O)C(=O)N[C@@H](CCC(=O)O)C(=O)N[C@@H](CC(C)C)C(=O)N[C@@H](Cc1c[nH]cn1)C(=O)N[C@@H](CCCCN)C(=O)N[C@@H](CC(C)C)C(=O)N[C@@H](CCC(N)=O)C(=O)N[C@H](C(=O)N[C@@H](Cc1ccc(O)cc1)C(=O)N1CCC[C@H]1C(N)=O)[C@@H](C)O [calcitonin-(1-23)-peptide amide, Calcitonin-(1-23)-peptide amide] (H-CSNLSTCVLGKLSQELHKLQTYP-NH2; disulfide 1-7)
[1]; rat, in vivo, sc
  biological potency: 11.5 IU/mg

## CC(C)C[C@H](NC(=O)[C@H](CCCCN)NC(=O)CNC(=O)[C@H](CC(C)C)NC(=O)[C@@H](NC(=O)[C@@H]1CSSC[C@H](N)C(=O)N[C@@H](CO)C(=O)N[C@@H](CC(N)=O)C(=O)N[C@@H](CC(C)C)C(=O)N[C@@H](CO)C(=O)N[C@@H]([C@@H](C)O)C(=O)N1)C(C)C)C(=O)N[C@@H](CO)C(=O)N[C@@H](CCC(N)=O)C(=O)N[C@@H](CCC(=O)O)C(=O)N[C@@H](CC(C)C)C(=O)N[C@@H](Cc1c[nH]cn1)C(=O)N[C@@H](CCCCN)C(=O)N[C@@H](CC(C)C)C(=O)N[C@@H](CCC(N)=O)C(=O)N[C@H](C(=O)N[C@@H](Cc1ccc(O)cc1)C(=O)N1CCC[C@H]1C(=O)N[C@@H](CCCNC(=N)N)C(=O)N[C@H](C(=O)N[C@@H](CC(N)=O)C(=O)N[C@H](C(=O)NCC(=O)N[C@@H](CO)C(=O)NCC(=O)N[C@H](C(=O)N1CCC[C@H]1C(N)=O)[C@@H](C)O)[C@@H](C)O)[C@@H](C)O)[C@@H](C)O [standard salmon calcitonin, Salmon calcitonin]
[1]; standard salmon calcitonin used, independently determined
  potency of the standard, independently determined: greater than 4,000 IU/mg

## (1,7-α-L-aminosuberic acid) eel calcitonin
[2]
  hypocalcemic potency: about 3400 Iu/mg

## eel calcitonin (CSNLSTCVLGKLSQELHKLQTYPRTDVGAGTP-NH2; disulfide 1-7; ends not checked; UniProt P01262 1-32, looked up) [synthetic eel calcitonin, synthetic eel calcitonin of Monikawa et al]
[2]
  hypocalcemic potency: around 4300 Iu/mg
